# Results from article PMC4099110, “Synthesis and Evaluation of Novel Pyrroles and Pyrrolopyrimidines as Anti-Hyperglycemic Agents” (BioMed Research International, 2014).
# “And” between values parts separate entries of the source, which are not always exact repeats. Equal values may be shown once.
# Legend:
# [1] = system: male Wistar albino rats; assay: Streptozotocin (STZ) model of diabetes, blood glucose AUC; type: in vivo, rat; settings: for Potency of antihyperglycemic derivatives compared to Amaryl: decrease in blood glucose relative to Amaryl = 100%, model not stated
# Method: The complete course of the experiment was conducted using male Wistar albino rats (200-250 g), reared and maintained in the animal house of the institution and provided free access to pelleted food and water ad libitum. The rats were maintained in a controlled environment (12 h light and dark cycle) for about a week for acclimatization. The protocol of the study was approved by the animal ethics committee of the Faculty of Pharmacy, […] University (10-01-2012). The study was conducted in accordance with the EC, directive 86/609/EEC for animal experiments. […] Equivalent doses of all derivatives were calculated according to their molecular weight [M·wt]. Diabetes was induced in overnight fasted rats with a single intraperitoneal injection of streptozotocin (STZ) (Sigma-Aldrich, Co., St. Louis, USA. Catalog number: 1001062761) in a dose of 65 mg/kg. STZ was freshly dissolved in ice cold citrate buffer (0.01 M, pH 4.5) prior to injection. […] Group 2, diabetic + Glimepiride ([…]) (4 mg/kg), served as a reference antidiabetic drug. Groups (3-14) were given the various pyrrole derivatives ([…], b, f, and VIIIf, a, resp.). The treated groups administered the […] and different derivatives orally. For each group, blood glucose was estimated at zero, one, two, four, and six hours after oral administration of derivatives using glucometer (Gluco Dr Super Sensor, AllMedicus Co., Ltd., Anyang, Gyeonggi, Korea). Data were represented as mean area under curve (AUC) ± SD. Significant differences between groups was tested using GraphPad InStat (Graph software Inc., V 3.05, Ralph […], Purdue University). Appropriate graphs were plotted using Microsoft Excel 2007.
# [2] = system: Male Wistar rats; assay: Sucrose-Loaded Model (SLM), blood glucose AUC; type: in vivo, rat; settings: oral gavage, sucrose load 10 gm/kg, mean AUC of blood glucose 30-120 min, dose equivalent to Glimepiride 4 mg/kg by M.wt, vs untreated normal control
# Method: The complete course of the experiment was conducted using male Wistar albino rats (200–250 g), reared and maintained in the animal house of the institution and provided free access to pelleted food and water ad libitum. The rats were maintained in a controlled environment (12 h light and dark cycle) for about a week for acclimatization. The protocol of the study was approved by the animal ethics committee of the Faculty of Pharmacy, Helwan University (10-01-2012). The study was conducted in accordance with the EC, directive 86/609/EEC for animal experiments.
# Glimepiride (Amaryl) was used as a standard antidiabetic (4 mg/kg) in 1% gum acacia and administered orally. Equivalent doses of all derivatives were calculated according to their molecular weight [M·wt].
# Male Wistar rats were fasted overnight. Blood was collected initially and then the compounds were given to corresponding groups consisting of six rats each by oral gavage. A sucrose load of (10 gm/kg) body weight was given to each rat after half an hour posttest treatment. Blood was collected in 30, 60, 90, and 120 min after sucrose load. The percentages (%) fallen in blood glucose level were calculated according to the AUC method.
# Data were represented as mean area under curve (AUC) ± SD. Significant differences between groups was tested using GraphPad InStat (Graph software Inc., V 3.05, Ralph Stahlman, Purdue University). Appropriate graphs were plotted using Microsoft Excel 2007. P value less than 0.05 was considered statistically significant.
# [3] = In vivo acute toxicity study, serum liver and kidney markers; parameters: species or system rat; settings: for ALP / ALT / AST / Creatinine: rat serum; for levels of sera ALT, AST, ALP, and creatinine versus control untreated group: rats
# Method: Alanine aminotransferase (ALT) and aspartate aminotransferase (AST) activities in serum were measured according to the Reitman-Frankel calorimetric transaminase procedure, whereas alkaline phosphatase (ALP) was assayed by the kinetic enzymatic method by measuring the rate of hydrolysis of p-nitrophenyl phosphate by ALP according to Henry; all were measured as indicators of hepatic injury. Serum creatinine levels were assayed as an indicator for renal injury in the samples by a calorimetric method, using commercial diagnostic kits (Diamond Diagnostics, Egypt).
# [4] = as above; settings: rat
# [5] = oral, STZ 65 mg/kg i.p. diabetic rats, mean AUC of blood glucose 0-6 h, dose equivalent to Glimepiride 4 mg/kg by M.wt, vs diabetic control
SMILES,"inhibition in vivo at 4 mg/kg ([1]; Rattus norvegicus, oral, STZ 65 mg/kg i.p. diabetic rats, mean AUC of blood glucose 0-6 h, dose equivalent to Glimepiride 4 mg/kg by M.wt, vs diabetic control, read-out: % reduction in blood glucose compared to control, STZ) [%]",Potency of antihyperglycemic derivatives compared to Amaryl [1],"inhibition in vivo at 4 mg/kg ([2]; Rattus norvegicus, 2 h, read-out: % reduction in blood glucose compared to control, SLM) [%]","% reduction in blood glucose compared to control, STZ [1, 5]",ALP [3] [U/L],ALT [3] [U/L],AST [3] [U/L],Creatinine [3] [mg/dL],"levels of sera ALT, AST, ALP, and creatinine versus control untreated group [3]","% reduction in blood glucose compared to control, SLM [2]",death or toxicity symptoms [4],melting point [°C]
"CCC1=C(C)CN(C(=O)NCCc2ccc(S(=O)(=O)NC(=O)N[C@H]3CC[C@H](C)CC3)cc2)C1=O [Amaryl, Glimepiride, reference compound]",30.4,100%,27.7,–,–,–,–,–,–,–,–,–
"Cc1c(-n2cc(-c3ccccc3)c(C#N)c2N)c(=O)n(-c2ccccc2)n1C [Ie, 2-Amino-1-(1,5-dimethyl-3-oxo-2-phenyl-2,3-dihydro-1H -pyrazol-4-yl)-4-phenyl-1H -pyrrole-3-carbonitrile]",–,97% and 96.99%,–,29.5% and 29.5 ^ a %,73.9 ± 13.2,20.5 ± 3.1,62.7 ± 9.7,0.77 ± 0.14,not significantly changed,16.7% and 16.7 ^ a %,did not die or show any toxicity symptoms,–
"Cc1nc(Cl)c2c(-c3ccccc3)c(-c3ccccc3)n(-c3c(C)n(C)n(-c4ccccc4)c3=O)c2n1 [IVg, 4-(4-Chloro-2-methyl-5,6-diphenyl-7H-pyrrolo[2,3-d]pyrimidin-7-yl)-1,5-dimethyl-2-phenyl-1H-pyrazol-3(2H)-one]",–,–,–,11.2 ^ a %,–,–,–,–,–,13 ^ a %,–,158 to 160
N#Cc1c(-c2ccccc2)c(-c2ccccc2)n(Cc2ccccc2)c1N [Ia],–,109.4% and 109.43%,–,33.3% and 33.3 ^ a %,68.5 ± 12.3,17.9 ± 2.7,69.4 ± 9.5,0.8 ± 0.16,not significantly changed,17.4% and 17.4 ^ a %,did not die or show any toxicity symptoms,–
